From PMC7673538 (PLoS Biology, 2020)
Where “and” joins values, the source holds several entries; their conditions need not be identical. Equal values may be shown once. Read-outs that look alike come from different tables or passages of the source.

Key:
[1] = tested on: HRV-B14; test: microbe, parasite or virus in culture; format: cell-based, human rhinovirus
[2] = tested on: CV-B3; test: microbe, parasite or virus in culture; format: cell-based, coxsackievirus B3; details: Enterovirus B
[3] = tested on: CV-B3; test: microbe, parasite or virus in culture; format: cell-based, coxsackievirus B3; details: Enterovirus B, CVB3, BGM
[4] = tested on: representative EVs and RVs; format: cell-based
[5] = tested on: EV-A71 (strain BrCr); format: cell-based, enterovirus A71
[6] = tested on: CV-B3 (strain Nancy); format: cell-based, coxsackievirus B3
[7] = tested on: CV-A24 (strain Joseph); format: cell-based, coxsackievirus A24; details: compound concentration 1 µM
[8] = tested on: EV-D68 (strain Fermon); format: cell-based, enterovirus D68
[9] = tested on: HRV-A2; format: cell-based, human rhinovirus
[10] = tested on: HRV-B14; format: cell-based, human rhinovirus; details: compound concentration 0.1 µM
[11] = tested on: HeLa R19 cells
[12] = in vitro; details: human
[13] = in vitro; details: human; remark: listed apart in the source
[14] = in vitro; details: monkey

## COc1ccc(N(Cc2ccc(F)cc2)C(=O)c2ccco2)cc1 [Compound 1, N-(4-fluorobenzyl)-N-(4-methoxyphenyl)furan-2-carboxamide]
[1]; Concentration 0.0046 µM
  Figure 7 dose-response raw data, HRV_B14 (triplicate values): 15.2266 and 14.5606
[1]; Concentration 0.0137 µM
  Figure 7 dose-response raw data, HRV_B14 (triplicate values): 15.2266 and 14.5606
[1]; Concentration 0.0412 µM
  Figure 7 dose-response raw data, HRV_B14 (triplicate values): 15.2266 and 14.5606 and 20.943
[1]; Concentration 0.3704 µM
  Figure 7 dose-response raw data, HRV_B14 (triplicate values): 23.8668 and 30.9898 and 27.193
[1]; Concentration 1.1111 µM
  Figure 7 dose-response raw data, HRV_B14 (triplicate values): 29.6577 and 30.8788 and 30.9898
[1]; Concentration 3.3333 µM
  Figure 7 dose-response raw data, HRV_B14 (triplicate values): 15.2266 and 14.5606
[1]; Concentration 11.1111 µM
  Figure 7 dose-response raw data, HRV_B14 (triplicate values): 71.9426 and 62.9417 and 74.4773
[1]; Concentration 33.3333 µM
  Figure 7 dose-response raw data, HRV_B14 (triplicate values): 100.034 and 89.1582 and 86.605
[1]; Concentration 100 µM
  Figure 7 dose-response raw data, HRV_B14 (triplicate values): 104.147 and 89.1582 and 86.605
[1]; Human rhinovirus sp., HRVB14, HeLa R19, read-out: EC50 Exp1
  EC50: 10.8 µM
[1]; Human rhinovirus sp., HRVB14, HeLa R19, read-out: EC50 Exp2
  EC50: 13.9 µM
[1]; Human rhinovirus sp., HRVB14, HeLa R19, read-out: EC50 HRV-B14
  EC50: 10.8 ± 1.27 µM
[1]; Human rhinovirus sp., HRVB14, HeLa R19, read-out: EC50 HRV-B14 Experiement 3
  EC50: 11.1 µM
[1]; Human rhinovirus sp., HRVB14, HeLa R19, read-out: EC50 HRV-B14 Experiment 1
  EC50: 12.2 µM
[1]; Human rhinovirus sp., HRVB14, HeLa R19, read-out: EC50 HRV-B14 Experiment 2
  EC50: 9.16 µM
[1]; read-out: EC50 HRV-B14
  EC50: 12.4 ± 1.51 µM
[2]; CVB3, HAP1, read-out: EC50 Hap1 Average
  EC50: 1.57 µM
[2]; CVB3, HAP1, read-out: Exp 1 EC50 Hap1
  EC50: 1.49 µM
[2]; CVB3, HAP1, read-out: Exp 2 EC50 Hap1
  EC50: 1.65 µM
[3]; read-out: EC50 BGM Average
  EC50: 1.66 µM
[3]; read-out: Exp 1 EC50 BGM
  EC50: 1.43 µM
[3]; read-out: Exp 2 EC50 BGM
  EC50: 1.89 µM
[4]
  inhibition of contemporary/clinical isolates of EV-A71, CV-A24v and EV-D68 (in words): only inhibited the contemporary strains of EV-D68
[5]; compound concentration 0.001 µM
  virus titer, TCID50/ml (Figure 2A): 316228 TCID50/ml
[5]; compound concentration 0.01 µM
  virus titer, TCID50/ml (Figure 2A): 316228 TCID50/ml
[5]; compound concentration 0.1 µM
  virus titer, TCID50/ml (Figure 2A): 316228 TCID50/ml
[5]; compound concentration 0.3 µM
  virus titer, TCID50/ml (Figure 2A): 316228 TCID50/ml
[6]; compound concentration 1 µM
  virus titer, TCID50/ml (Figure 2A): 1000000000 TCID50/ml
[6]; compound concentration 10 µM
  virus titer, TCID50/ml (Figure 2A): 31622.8 TCID50/ml and 16982.4 TCID50/ml and 21379.6 TCID50/ml
[7]
  virus titer, TCID50/ml (Figure 2A): 100000 TCID50/ml and 169824 TCID50/ml and 162341 TCID50/ml
[8]; compound concentration 3 µM
  virus titer, TCID50/ml (Figure 2A): 31622.8 TCID50/ml and 21379.6 TCID50/ml and 35481.3 TCID50/ml
[8]; compound concentration 10 µM
  virus titer, TCID50/ml (Figure 2A): 31622.8 TCID50/ml and 21379.6 TCID50/ml and 35481.3 TCID50/ml
[8]; compound concentration 100 µM
  virus titer, TCID50/ml (Figure 2A): 31622.8 TCID50/ml and 21379.6 TCID50/ml and 35481.3 TCID50/ml
[9]; compound concentration 0.1 µM
  virus titer, TCID50/ml (Figure 2A): 316278 TCID50/ml and 312278 TCID50/ml
[9]; compound concentration 0.3 µM
  virus titer, TCID50/ml (Figure 2A): 169824 TCID50/ml and 100000 TCID50/ml
[9]; compound concentration 3 µM
  virus titer, TCID50/ml (Figure 2A): 354813 TCID50/ml
[9]; compound concentration 100 µM
  virus titer, TCID50/ml (Figure 2A): 169824 TCID50/ml and 188844 TCID50/ml
[9]; compound concentration 150 µM
  virus titer, TCID50/ml (Figure 2A): 354813 TCID50/ml and 588844 TCID50/ml
[10]
  virus titer, TCID50/ml (Figure 2A): 10000000 TCID50/ml
[11]
  cytotoxic effect (in words): did not show any adverse cytotoxic effect
[12]; CC50
  CC50: > 30 µM
[12]; CC50 Average
  CC50: > 30 µM
[12]; CC50 Experiement 3
  CC50: > 30 µM
[12]; CC50 Experiment 1
  CC50: > 30 µM
[12]; CC50 Experiment 2
  CC50: > 30 µM
[12]; CC50 HelaR19 Average
  CC50: 43.9 µM
[12]; Exp 1 CC50
  CC50: > 30 µM
[12]; Exp 1 CC50 HelaR19
  CC50: 40.4 µM
[12]; Exp2 CC50
  CC50: > 30 µM
[12]; Exp 2 CC50 HelaR19
  CC50: 47.4 µM
[13]; CC50 Hap1 Average
  CC50: 45.6 µM
[13]; Exp 1 CC50 Hap1
  CC50: 45.1 µM
[13]; Exp 2 CC50 Hap1
  CC50: 46.1 µM
[14]; CC50
  CC50: 50.65 ± 0.32 µM
[14]; CC50 BGM Average
  CC50: 50.6 µM
[14]; Exp 1 CC50 BGM
  CC50: 51 µM
[14]; Exp 2 CC50 BGM
  CC50: 50.3 µM
